Reference: patent US5506204A, “Muramyl compounds for treatment of septic shock” (Peptech (UK) Limited, priority 1991, dated 1996)
Where two headings read alike, the source gives them in different places.

Tests used:
[1] = system: TNFα; experiment: Example 8: TNF induction by muramyl peptides; type: in vivo, BALB/c mice; details: C. parvum-primed mice, 100 μg (equimolar) IP, LPS 25 μg 18 hours later; FIG. 6
Method: Here, the muramyl peptides tested were prototype MDP, GMDP, GMDP-A, GMDP-OBu, GMDP-Lys(St), GMDPA-Lys(St), GMDP-Benz and Thr-MDP.
BALB/mice (6 mice/groups) were injected intraperitoneally with 1.4 mg of dead C. parvum (0.2 ml of a 7 mg/ml suspension). Mice were subsequently (2 weeks later) treated with saline, MDP (100 μg) or analogue (100 μg) in 0.5 ml saline IP. The dose of each `MDP` was adjusted so that animals received equimolar amounts. […] (25 μg) was injected 18 hours after the injection of MDP/analogue and the mice were subsequently sacrificed and bled out. TNF was determined by standard capture ELISA assay.

[2] = system: mice; details: acute toxicity in mice; cited from earlier work
[3] = Pyrogenicity; details: in vivo
Method: The expression "non pyrogenic or of low pyrogenicity" refers to a compound which induces an increase in temperature of an adult human of less than half a degree following the administration of 1 to 2 mg of the compound.
First, muramyl peptide compounds useful in the invention may be non-pyrogenic. Pyrogenicity may be simply measured by methods well known in the art.

[4] = system: IL-1; experiment: Example 6: IL-1 production by peritoneal macrophages in response to LPS; type: in vivo, BALB/c mice; details: 2 injections 12 hours apart; macrophages stimulated with LPS 25 μg/ml 24 hours; thymocyte co-stimulation bioassay; FIG. 4
Method: Mice (BALB/c, female) 13-14 g, 5 animals in each group, received 2 injections of MDPs, 12 hours apart. The MDPs tested were MDP, muroctasin, MDP-Thr, MDP-OBu, GMDP-LL, GMDP-Lys(St) and GMDP-A. After the last injection, peritoneal cells were collected and the induction of IL-1 secretion by peritoneal macrophages was tested.
Macrophages were collected from the peritoneal cavity of mice by lavage with Hank's balanced salt solution. After washing the cells, they were then placed in wells of flat-bottomed 96-well plates and incubated at 37° C. for 1 hour in RPMI containing 5% FCS. The plates were then washed with warm RPMI to remove non-adhering cells. LPS (25 μg/ml) was then added in fresh culture medium and the plates were further cultured for 24 hours.
Production of IL-1 by peritoneal macrophages was assayed by thymocyte co-stimulation bioassay. Thymocytes from (CBA*C57BL.6)F1 mice (106), PHA (1 μg.ml), and the tested supernatant (50 μl) were placed into the wells of flat-bottomed 96-well plates. Thymocyte proliferation rate was measured 72 hours later by the incorporation of 3H TdR (1 μCi.well) during 6 hours prior to culture termination.

[5] = system: peritoneal macrophages; details: 100 μg i.p. per mouse, LPS 300 μg one day later, black ink uptake, OD 610 nm; FIG. 2
Method: Mice were divided into 9 groups and to each group was administered one of the following: saline, MDP, MDP-OBu, MDP-Thr, GMDP, MDP-Lys(St), GMDP-OH and GMDP-LL.
The compound under test was injected into the peritoneal cavity of mice, each mouse receiving 100 μg or an equimolar equivalent dose. Control mice received 200 μl of saline. One day after injection of the muramyl peptide, a lethal does of LPS (300 μg per mouse) in 200 μl of physiological saline was injected intraperitoneally and after 20 minutes, 1 ml of black ink was also administered intraperitoneally. 10 minutes later, peritoneal macrophages were obtained and washed twice. The number of cells was counted and then the macrophages were lysed and the optical density of the supernatant was determined at 610 nm.

[6] = system: neutrophils
Method: (§1) Neutrophils were isolated from peripheral blood. 3.5 ml of heparinised blood was spread over M-PRM medium (Flow Laboratories) and centrifuged for 40 minutes at 400g at 20° C. […] The cells were adjusted to a concentration of 2×10^6 ml.
Adhesion: 100 μl of neutrophil suspension were placed in the wells of a flat-bottomed culture dish, and incubated at 37° C. for 60 minutes. After washing off the non-adhesive cells, the adhered neutrophils were fixed with ethanol and stained with Romanovsky-Giemsa dye. After washing out the free dye, the cell-associated dye was dissolved in isopropanol, and the optical density (OD650) of the solution was determined using an "ELISA II" microprocessor (Boehringer). The number of adherent cells was calculated by reference to a standard curve.
(§2) On day before treatment with GMDP (day -1) the neutrophil function of all patients was measured by the tests described above in Example 1. In the GMDP-treated group, GMDP was administered parenterally at a dose of 1-2 mg/day for five consecutive days. The total dose of GMDP was […].
(§3) One day after the cessation of GMDP treatment (day +6), neutrophil function was again measured in all patients.

[7] = system: neutrophils; remark: listed apart in the source
Method: as §1
Myeloperoxidase: 100 μl of substrate mixture, consisting of 0.04% orthophenylene diamine (Sigma) and 0.014% hydrogen peroxide in phosphate citrate buffer (pH 5.0) was added to cells and incubated for 10 minutes before the reaction was stopped with 100 μl of 10% sulphuric acid. The optical density at 492 mu was measured with a Multiscan Titertek Plus (Flow Laboratories).
(§4) For chemiluminescence, superoxide anion production, myeloperoxidase and acid phosphatase both the spontaneous and induced reactions were measured. Induction was performed by exposing the cells to opsonized zymosan (30 μl, 20 mg/ml) for 30 minutes at 37° C. before the assay.
(§5) In the treated group GMDP was given per os on days -2 and -1 before the operation, and subcutaneously on days +1, +2 and +3 after the operation at a dose of 1-2 mg/day. The total dose of GMDP was […]. On day +5 after the operation neutrophil function was again assessed in all patients by the same parameters as specified above.

[8] = system: neutrophils; remark: listed apart in the source
Method: as §1
Superoxide anion production was determined by the NBT test (Merck).
as §4, §5

[9] = system: TNFα; experiment: Example 5: TNF production in whole blood culture; type: cell-based; details: human blood diluted 1:2, 6 hours at 37° C., TNFα capture ELISA; FIG. 3
Method: Whole heparinized human blood was diluted 1:2 with RPMI and dispensed into 96-well microtitre plates. Individual wells were treated with saline, GMDP, MDP or LPS at the doses shown above. After incubating at 37° C. for 6 hours, the supernatants were assayed for TNFα by a standard capture ELISA method. […] This is a sensitive assay for measuring the effect of mediators on immune cell production of TNFα which is believed to be a primary mediator of inflammation, coagulopathy and death in sepsis and septic shock. It can be seen that GMDP is the least inflammatory mediator; the respective TNF inducing activities of these substances would […] correlate with their toxicities.

[10] = system: neutrophils; remark: listed apart in the source
Method: as §1
Chemiluminescence: Luminol-dependent chemiluminescence was measured on a 1251 Luminometer (LKB).
as §4, §2, §3

[11] = opsonized zymosan, Day -3 (before treatment)
[12] = opsonized zymosan, Day -3 to Day +5

CC(=O)NC1C(OC2C(CO)OC(O)C(NC(C)=O)C2OC(C)C(=O)NC(C)C(=O)NC(CCC(=O)O)C(N)=O)OC(CO)C(O)C1O [GMDP, N-acetyl-D-glucosaminyl-(β1-4)-N-acetylmuramyl-L-alanyl-D-isoglutamine]
effect on LPS-induced TNFα production [1]: suppress TNFα production
LD50 [2]: 7000 mg/kg
pyrogenicity [3]: sufficiently low
suppression of IL-1 production [4]: suppress the IL-1 response to LPS
phagocytic activity of macrophages [5]: potent in increasing macrophage activity
Adhesion ([6]; Day +6): 52.3 ± 2.3 O.D. 650μ
Adhesion ([6]; Day -1 (before treatment)): 34.6 ± 6.2 O.D. 650μ
Adhesion % Change ([6]; Day -1 to Day +6): +51.2%
Myeloperoxidase, spontaneous ([7]; Day +5): 1075 ± 178.3 O.D. 492μ
Myeloperoxidase, spontaneous ([7]; Day -3 (before treatment)): 1145 ± 204.1 O.D. 492μ
Myeloperoxidase, spontaneous % Change ([7]; Day -3 to Day +5): -6.1%
Myeloperoxidase, induced ([7]; opsonized zymosan, Day +5): 948.3 ± 205 O.D. 492μ
Myeloperoxidase, induced [7, 11]: 948.3 ± 205 O.D. 492μ
Myeloperoxidase, induced % Change [7, 12]: +11.2%
Superoxide, spontaneous ([8]; Day +5): 97.6 ± 12.8
Superoxide, spontaneous ([8]; Day -3 (before treatment)): 78.9 ± 15.7
Superoxide, spontaneous % Change ([8]; Day -3 to Day +5): +23.7%
Superoxide, induced ([8]; opsonized zymosan, Day +5): 134.9 ± 11.3
Superoxide, induced [8, 11]: 133.7 ± 16.1
Superoxide, induced % Change [8, 12]: +0.9%
TNF production in whole blood culture [9]: poor inducer of TNF
Chemiluminescent, spontaneous ([10]; Day +6): 4.16 ± 0.14 mV
Chemiluminescent, spontaneous ([10]; Day -1 (before treatment)): 2.41 ± 0.14 mV
Chemiluminescent, spontaneous % Change ([10]; Day -1 to Day +6): +72.6%
Chemiluminescent, induced ([10]; opsonized zymosan, Day +6): 21.3 ± 3.51 mV
Chemiluminescent, induced ([10]; opsonized zymosan, Day -1 (before treatment)): 9.41 ± 2.1 mV
Chemiluminescent, induced % Change ([10]; opsonized zymosan, Day -1 to Day +6): +126.4%
